pIC50, pKd: −log10 of the molar value.
Legend:
[1] = system: MV4-11; test: Cell cycle arrest in human MV4-11 cells assessed as accumulation at G2 phase at 1000 nM after 48 hrs by PI/RNase staining based FACS analysis (reference value: 13.95%); format: functional
[2] = system: MV4-11; test: Cell cycle arrest in human MV4-11 cells assessed as accumulation at S phase at 1000 nM after 48 hrs by PI/RNase staining based FACS analysis (reference value: 16.50%); format: functional
[3] = system: Receptor-type tyrosine-protein kinase FLT3 (Homo sapiens), P36888 [N841I]; test: Inhibition of human FLT3 N841I mutant expressed in bacterial system assessed as remaining enzyme activity at 1 uM relative to untreated control
[4] = system: MV4-11; test: Antitumor activity against human MV4-11 cells xenografted in nude BALB/c mouse assessed as tumor growth inhibition at 25 mg/kg, ip qd for 14 days measured every 2 days; format: functional; conditions: MV4-11, ip, read-out: TGI
[5] = system: MOLT-4; test: Antiproliferative activity against human MOLT4 cells after 72 hrs by MTT assay; format: functional, cell-based; conditions: MOLT-4, 72 h
[6] = AUC (0 to infinity) in overnight fasted Sprague-Dawley rat plasma at 10 mg/kg administered via oral gavage up to 24 hrs by LC-MS/MS analysis; format: ADME, organism-based; set-up: dose 10 mg/kg, route oral, time infinity
[7] = system: MOLM-13; test: Antiproliferative activity against human MOLM13 cells harboring FLT3-ITD mutant after 72 hrs by MTT assay; format: functional, cell-based; conditions: MOLM-13, 72 h
[8] = system: NCI-H146; test: Antiproliferative activity against human NCI-H146 cells after 72 hrs by MTT assay; format: functional, cell-based; conditions: NCI-H146, 72 h
[9] = system: MV4-11; test: Induction of apoptosis in human MV4-11 cells assessed as early apoptotic cells at 100 nM after 48 hrs by annexin V/propidium iodide staining based FACS analysis (reference value: 6.31%); format: functional
[10] = system: MV4-11; test: Cell cycle arrest in human MV4-11 cells assessed as accumulation at G0/G1 phase at 1 nM after 48 hrs by PI/RNase staining based FACS analysis (reference value: 69.55%); format: functional
[11] = system: MV4-11; test: Antitumor activity against human MV4-11 cells xenografted in nude BALB/c mouse assessed as tumor growth inhibition at 50 mg/kg, ip qd for 14 days measured every 2 days; format: functional; conditions: MV4-11, ip, read-out: TGI
[12] = system: DMS-79; test: Antiproliferative activity against human DMS79 cells after 72 hrs by MTT assay; format: functional, cell-based; conditions: DMS-79, 72 h
[13] = Ratio of IC50 for human WI38 cells to IC50 for human MV4-11 cells; format: toxicity; conditions: WI38 cells versus MV4-11 cells, read-out: Ratio IC50
[14] = system: Receptor-type tyrosine-protein kinase FLT3 (Homo sapiens), P36888 [UNDEFINED MUTATION]; test: Inhibition of human FLT3 ITD mutant expressed in bacterial system assessed as remaining enzyme activity at 1 uM relative to untreated control
[15] = target: T1, Receptor-type tyrosine-protein kinase FLT3 (Homo sapiens, UniProt P36888)
T1 sequence (P36888 whole entry): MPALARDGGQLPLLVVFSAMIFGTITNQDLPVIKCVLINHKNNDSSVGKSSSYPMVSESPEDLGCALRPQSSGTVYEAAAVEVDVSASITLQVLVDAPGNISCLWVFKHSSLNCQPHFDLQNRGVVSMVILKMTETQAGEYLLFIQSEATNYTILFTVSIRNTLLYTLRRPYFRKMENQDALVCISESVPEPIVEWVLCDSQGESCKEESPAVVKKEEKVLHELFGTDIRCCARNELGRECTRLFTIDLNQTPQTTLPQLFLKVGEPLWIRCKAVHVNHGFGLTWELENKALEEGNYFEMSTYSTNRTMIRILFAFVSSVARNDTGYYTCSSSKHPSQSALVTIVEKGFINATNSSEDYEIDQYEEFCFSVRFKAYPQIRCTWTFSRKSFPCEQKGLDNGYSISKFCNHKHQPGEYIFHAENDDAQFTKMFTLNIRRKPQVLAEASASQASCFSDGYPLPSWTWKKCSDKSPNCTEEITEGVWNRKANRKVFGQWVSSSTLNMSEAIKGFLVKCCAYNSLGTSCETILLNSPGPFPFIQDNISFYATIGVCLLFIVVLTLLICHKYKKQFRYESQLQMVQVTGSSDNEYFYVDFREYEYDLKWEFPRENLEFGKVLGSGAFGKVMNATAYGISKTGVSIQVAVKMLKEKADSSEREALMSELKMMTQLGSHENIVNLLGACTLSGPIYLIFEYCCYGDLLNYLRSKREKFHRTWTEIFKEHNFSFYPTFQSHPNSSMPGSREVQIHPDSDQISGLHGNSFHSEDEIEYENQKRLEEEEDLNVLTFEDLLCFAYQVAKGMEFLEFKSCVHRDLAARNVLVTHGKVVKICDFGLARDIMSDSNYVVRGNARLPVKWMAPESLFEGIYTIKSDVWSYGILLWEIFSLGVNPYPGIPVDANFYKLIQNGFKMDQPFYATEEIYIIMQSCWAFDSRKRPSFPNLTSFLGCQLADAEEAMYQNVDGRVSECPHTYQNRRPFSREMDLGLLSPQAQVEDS
Description: Inhibition of human N-terminal GST-tagged FLT3 (564 to 993 residues) expressed in baculovirus expression system using peptide FAM-P2 as substrate incubated for 10 mins followed by substrate addition by mobility shift assay

[16] = system: MV4-11; test: Induction of apoptosis in human MV4-11 cells assessed as necrotic cells at 100 nM after 48 hrs by annexin V/propidium iodide staining based FACS analysis (reference value: 0.05%); format: functional
[17] = system: MV4-11; test: Induction of apoptosis in human MV4-11 cells assessed as early apoptotic cells at 1 nM after 48 hrs by annexin V/propidium iodide staining based FACS analysis (reference value: 6.31%); format: functional
[18] = target: T1, Receptor-type tyrosine-protein kinase FLT3; test: Binding affinity to human partial length wild type FLT3 (592 to 969 residues) expressed in bacterial expression system after 1 hr
[19] = system: WI-38; test: cells; conditions: Homo sapiens, WI-38, 72 h
Description: Antiproliferative activity against human WI38 cells after 72 hrs by SRB assay

[20] = Volume of distribution at steady state in overnight fasted Sprague-Dawley rat plasma at 1 mg/kg, iv up to 24 hrs by LC-MS/MS analysis; format: ADME, organism-based; conditions: read-out: Vdss
[21] = Cmax in overnight fasted Sprague-Dawley rat plasma at 1 mg/kg, iv up to 24 hrs by LC-MS/MS analysis; format: ADME, organism-based; set-up: dose 1 mg/kg, route intravenous
[22] = target: Receptor-type tyrosine-protein kinase FLT3 (Homo sapiens, UniProt P36888, D835H); test: Binding affinity to human partial length FLT3 D835H mutant (592 to 969 residues) expressed in bacterial expression system after 1 hr
[23] = system: MV4-11; test: Cell cycle arrest in human MV4-11 cells assessed as accumulation at G0/G1 phase at 1000 nM after 48 hrs by PI/RNase staining based FACS analysis (reference value: 69.55%); format: functional
[24] = system: MV4-11; test: Induction of apoptosis in human MV4-11 cells assessed as necrotic cells at 10 nM after 48 hrs by annexin V/propidium iodide staining based FACS analysis (reference value: 0.05%); format: functional
[25] = system: MV4-11; test: Cell cycle arrest in human MV4-11 cells assessed as accumulation at S phase at 1 nM after 48 hrs by PI/RNase staining based FACS analysis (reference value: 16.50%); format: functional

`Cc1cc(Nc2ncc3ncc(=O)n(-c4ccc(N)cc4)c3n2)ccc1N1CCN(C)CC1` gave an Activity [1] of 0%, an Activity [2] of 3.07% and an Activity [3] of less than 1%. For the same compound, the inhibition in vivo at 25 mg/kg [4] was 129%, the pIC50 [5] was 5.67 and the AUC(0-inf) [6] was 311 ng·h/mL. It also gave a pIC50 [7] of 7.48, a pIC50 [8] of less than 5.00 and an Activity [9] of 23%. It also gave an Activity [10] of 65.64%, an inhibition in vivo at 50 mg/kg [11] of 136% and a pIC50 [12] of less than 5.00. For the same compound, the selectivity ratio [13] was 33 to 81, the Activity [14] was less than 1% and the pIC50 [15] was 8.81. For the same compound, the Activity [16] was 0.25%, the Activity [17] was 6.09% and the pKd [18] was 8.30. For the same compound, the pIC50 [19] was 5.38, the Vd [20] was 27.7 L/kg and the Cmax [21] was 55.2 ng/mL. It also gave a pKd [22] of 8.74, an Activity [23] of 80.55% and an Activity [24] of 0.01%. For the same compound, the Activity [25] was 21.77%.

Reference: ChEMBL document CHEMBL4477208, “Discovery and Rational Design of Pteridin-7(8H)-one-Based Inhibitors Targeting FMS-like Tyrosine Kinase 3 (FLT3) and Its Mutants” (J Med Chem, 2016)
